The source of these data is ChEMBL document CHEMBL3044634, “Synthesis and evaluation of antibacterial and antifungal activities of new (Z)-3-bromo-4-(1,3-diaryl-1H-pyrazol-4-yl)but-3-en-2-ones and 4-(3-methyl-1-phenyl-1H-pyrazol-5-yl)-1,3-diaryl-1H-pyrazoles” (2013).

Values after ≈ are worked out from the molar mass of the structure shown. Active and inactive are the calls of the source. The calls are words filed in the database; no cut-off is given here.

The subject of assay [1] is Aspergillus flavus. The assay is described as follows: Growth inhibition of Aspergillus flavus at 4 mg/ml after 7 days by poisoned-food technique. The format is functional. Conditions: 168 h, read-out: GI.
Assay [2] concerns Aspergillus niger. Kind of assay: Growth inhibition of Aspergillus niger at 4 mg/ml after 7 days by poisoned-food technique. The format is functional. Conditions: 168 h, read-out: GI.
Assay [3] deals with Bacillus subtilis. The assay is described as follows: Antibacterial activity against Bacillus subtilis MTCC 121 at 2 mg/ml after 24 hr by agar well diffusion method. The class given is functional. As to conditions: MTCC 121, 24 h, read-out: DIZ. For orientation: In agar diffusion tests the substance spreads into inoculated agar from a disc or well.
For assay [4], the system named is Bacillus subtilis. The assay is described as follows: Antibacterial activity against Bacillus subtilis MTCC 121 after 24 hr by macrodilution tube method. The class given is functional. As to conditions: MTCC 121, 24 h.
For assay [5], the system named is Staphylococcus aureus. The assay is described as follows: Antibacterial activity against Staphylococcus aureus MTCC 96 at 2 mg/ml after 24 hr by agar well diffusion method. The class given is functional. Conditions: MTCC 96, 24 h, read-out: DIZ.
Assay [6] concerns Staphylococcus aureus. The assay is described as follows: Antibacterial activity against Staphylococcus aureus MTCC 96 after 24 hr by macrodilution tube method. The format is functional. Conditions: MTCC 96, 24 h.
Assay [7] concerns Escherichia coli. Kind of assay: Antibacterial activity against Escherichia coli MTCC 1652 at 2 mg/ml after 24 hr by agar well diffusion method. The class given is functional, organism-based.

As for `OC(Cn1cncn1)(Cn1cncn1)c1ccc(F)cc1F` [FLUCONAZOLE], the results for the inhibition of growth at 4000 µg/mL in assay [1] and in assay [2] were 77.7% and 81.1%, respectively.
Regarding `COc1ccc(-c2nn(-c3ccc([N+](=O)[O-])cc3)cc2-c2cc(C)nn2-c2ccccc2)cc1`, the values for the zone of inhibition at 2000 µg/mL in assay [3] and in assay [5] were 14 mm and 15.3 mm, respectively. In addition, the MIC (usually the lowest concentration that inhibits growth of the organism) in assay [4] turned out to be 128 µg/mL (≈ 284 µM); in assay [6], 256 µg/mL (≈ 567 µM). In addition, the inhibition of growth at 4000 µg/mL in assay [1] amounted to 44.4%; in assay [2] it was 46.6%. Also, the result in assay [7] was inactive.
As for `Cc1cc(-c2cn(-c3ccccc3)nc2-c2ccc(Cl)cc2)n(-c2ccccc2)n1`, the zone of inhibition at 2000 µg/mL in assay [3] amounted to 16.3 mm; in assay [5], 14.3 mm. Also, the results for the MIC in assay [4] and in assay [6] were 128 µg/mL (≈ 312 µM) and 256 µg/mL (≈ 623 µM), respectively. Also, the values for the inhibition of growth at 4000 µg/mL in assay [1] and in assay [2] were 51.1% and 48.8%, respectively. Also, the result in assay [7] was inactive.
As to `CC(=O)/C(Br)=C/c1cn(-c2ccccc2)nc1-c1ccc(Br)cc1`, the zone of inhibition at 2000 µg/mL is 19.3 mm in assay [3] and 21.3 mm in assay [5]. Besides, the MIC in assay [4] is 64 µg/mL (≈ 143 µM); in assay [6] it was 32 µg/mL (≈ 71.7 µM). Besides, the inhibition of growth at 4000 µg/mL in assay [1] worked out at 58.8%; in assay [2], 55.5%. Also, the outcome in assay [7] was inactive.
For the compound `CC(=O)/C(Br)=C/c1cn(-c2ccc([N+](=O)[O-])cc2)nc1-c1ccccc1`, the zone of inhibition at 2000 µg/mL in assay [3] is 17.3 mm; in assay [5], 19.3 mm. Further, the MIC in assay [4] was 128 µg/mL (≈ 310 µM); in assay [6] it was 64 µg/mL (≈ 155 µM). In addition, the values for the inhibition of growth at 4000 µg/mL in assay [1] and in assay [2] were 53.3% and 51.1%, respectively. Besides, in assay [7], the result was inactive.
With `Cc1cc(-c2cn(-c3ccccc3)nc2-c2ccc(F)cc2)n(-c2ccccc2)n1`, the zone of inhibition at 2000 µg/mL was found to be 16.3 mm in assay [3] and 15 mm in assay [5]. Further, the MIC in assay [4] and in assay [6] was 128 µg/mL (≈ 325 µM) each time. Besides, the inhibition of growth at 4000 µg/mL in assay [1] came out at 44.4%; in assay [2], 43.3%. For the same compound, the result in assay [7] was inactive.
Regarding `CC(=O)/C(Br)=C/c1cn(-c2ccc([N+](=O)[O-])cc2)nc1-c1ccc(F)cc1`, the zone of inhibition at 2000 µg/mL in assay [3] worked out at 17.3 mm; in assay [5], 16.6 mm. The MIC in assay [4] and in assay [6] was 128 µg/mL (≈ 298 µM) throughout. For the same compound, the figures for the inhibition of growth at 4000 µg/mL in assay [1] and in assay [2] were 50% and 48.8%, respectively. The outcome in assay [7] was inactive.
Turning to `CC(=O)/C(Br)=C/c1cn(-c2ccccc2)nc1-c1ccc(C)cc1`, the zone of inhibition at 2000 µg/mL in assay [3] came out at 17 mm; in assay [5] it was 18.3 mm. Besides, the MIC is 128 µg/mL (≈ 336 µM) in assay [4] and 64 µg/mL (≈ 168 µM) in assay [6]. Besides, the inhibition of growth at 4000 µg/mL in assay [1] stood at 52.2%; in assay [2], 51.1%. Moreover, the outcome in assay [7] was inactive.
For the compound `CC(=O)/C(Br)=C/c1cn(-c2ccccc2)nc1-c1ccc([N+](=O)[O-])cc1`, the zone of inhibition at 2000 µg/mL in assay [3] is 17.6 mm; in assay [5], 16 mm. Besides, the MIC in assay [4] and in assay [6] was 128 µg/mL (≈ 310 µM) each time. The inhibition of growth at 4000 µg/mL in assay [1] turned out to be 52.2%; in assay [2] it was 48.8%. The result in assay [7] was inactive.
In the case of `Cc1ccc(-c2nn(-c3ccccc3)cc2-c2cc(C)nn2-c2ccccc2)cc1`, the values for the zone of inhibition at 2000 µg/mL in assay [3] and in assay [5] were 16.3 mm and 14.6 mm, respectively. Also, the MIC in assay [4] came to 128 µg/mL (≈ 328 µM); in assay [6] it was 256 µg/mL (≈ 656 µM). Moreover, the inhibition of growth at 4000 µg/mL was determined as 45.5% in assay [1] and 44.4% in assay [2]. Besides, the outcome in assay [7] was inactive.
`Cc1cc(-c2cn(-c3ccc([N+](=O)[O-])cc3)nc2-c2ccccc2)n(-c2ccccc2)n1`: the zone of inhibition at 2000 µg/mL is 14.3 mm in assay [3] and 13.6 mm in assay [5]. Besides, the MIC in assay [4] and in assay [6] was 256 µg/mL (≈ 607 µM) each time. The figures for the inhibition of growth at 4000 µg/mL in assay [1] and in assay [2] were 45.5% and 43.3%, respectively. In assay [7], the outcome was inactive.
